Data on three molecules can be found in US8765907B2, “Production and use of antitumoral antibiotic and insecticidal cyclodepsipeptides” (Geomar Helmholtz-Zentrum fur Ozeanforschung Kiel, priority 2009, dated 2014).

SMILES strings stand for the structures.

Experiment [1] deals with RXF486L (kidney tumour cell line). Put plainly: Anti-proliferative effect (propidium iodide fluorescence assay), RXF486L. Type of experiment: cell-based, human. On the procedure: (§1) Xenobovide A, B and C inhibited the proliferation of all six tested human tumour cell lines: GXF251L (gastric tumour cell line), LXF529L (lung tumour cell line), MAXF401NL (breast cancer cell line), MEXF462NL (melanoma cell line), PAXF1657L (pancreas tumour cell line) and RXF486L (kidney tumour cell line).
(§2) The anti-proliferative effect was determined according to Dengler et al. (1995, Development of a propidium iodide fluorescence assay for proliferation and cytoxicity assay. Anti-Cancer Drugs 6:522-532).

In experiment [2] the test system is MEXF462NL (melanoma cell line). Put plainly: Anti-proliferative effect (propidium iodide fluorescence assay), MEXF462NL. The format is cell-based, human. The procedure:
as §1, §2

Experiment [3] deals with PAXF1657L (pancreas tumour cell line). Description: Anti-proliferative effect (propidium iodide fluorescence assay), PAXF1657L. The format is cell-based, human. On the procedure: as §1, §2
Experiment [4] has as its system MAXF401NL (breast cancer cell line). Description: Anti-proliferative effect (propidium iodide fluorescence assay), MAXF401NL. Type of experiment: cell-based, human. The procedure:
as §1, §2

The subject of experiment [5] is LXF529L (lung tumour cell line). Put plainly: Anti-proliferative effect (propidium iodide fluorescence assay), LXF529L. Type of experiment: cell-based, human. On the procedure: as §1, §2
The target of experiment [6] is glycogen synthase kinase 3beta (Homo sapiens, UniProt P49841). Description: Inhibition of glycogen synthase kinase 3beta (Kinase-Glo luminescent assay). Type of experiment: biochemical. From the text:
Xenobovide A and B, in a concentration of 16.3 μMol and 15.6 μMol, respectively, inhibited the glycogen synthase kinase 3beta by 21% and 43%, respectively. The performance was according to Baki et al. (2007, A high throughput luminescent assay for glycogen synthase kinase-3beta inhibitors. Assay and Drug Development Technologies. 5:75-83) using the kinase-Glo Luminescent Kinase Assay Kit of the company Promega.
(In general: Kinase-Glo measures the ATP left after a reaction by luminescence.)

Experiment [7] deals with GXF251L (gastric tumour cell line). Description: Anti-proliferative effect (propidium iodide fluorescence assay), GXF251L. The format is cell-based, human. On the procedure: as §1, §2
The next experiment concerns larvae of the wax moth. Description: Insecticidal effect, oral toxicity in feed. Type of experiment: in vivo. Conditions: added to feed, 1 mg substance/mL solution, five larvae per box, 35° C., six days, four repeated experiments. On the procedure: The insecticidal effect was tested against the larvae of the wax moth, a pathogen in beekeeping. […] To test the oral toxicity, 1 mg substance/mL was dissolved in a 50% aqueous ethanol solution. Five larvae each were transferred into a plastic box (2 cm in diameter) and fed with 1 g food mixture (0.8 mL substance solution, 0.2 mL glycerine (86%) and 1 g wheat bran). The control group was fed with 1 g food mixture without addition of substance (0.4 mL aq. dest., 0.4 mL ethanol, 0.2 mL glycerine (86%) and 1 g wheat bran). The incubation of the larvae was at 35° C. for six days. Subsequently, the dead larvae were counted.

For the next experiment, the target named is acetylcholine esterase. Conditions: read-out: IC50-value, acetylcholine esterase. On the procedure:
Testing was performed according to Birman (1985, Determination of acetylcholinesterase activity by a new chemiluminescence assay with natural substrate. Biochemical Journal. 225:825-828).

Experiment [8] addresses T1, Protein Tyrosine Phosphatase 1B (PTP1B) (Homo sapiens, UniProt P18031).
T1 sequence (P18031 1-435): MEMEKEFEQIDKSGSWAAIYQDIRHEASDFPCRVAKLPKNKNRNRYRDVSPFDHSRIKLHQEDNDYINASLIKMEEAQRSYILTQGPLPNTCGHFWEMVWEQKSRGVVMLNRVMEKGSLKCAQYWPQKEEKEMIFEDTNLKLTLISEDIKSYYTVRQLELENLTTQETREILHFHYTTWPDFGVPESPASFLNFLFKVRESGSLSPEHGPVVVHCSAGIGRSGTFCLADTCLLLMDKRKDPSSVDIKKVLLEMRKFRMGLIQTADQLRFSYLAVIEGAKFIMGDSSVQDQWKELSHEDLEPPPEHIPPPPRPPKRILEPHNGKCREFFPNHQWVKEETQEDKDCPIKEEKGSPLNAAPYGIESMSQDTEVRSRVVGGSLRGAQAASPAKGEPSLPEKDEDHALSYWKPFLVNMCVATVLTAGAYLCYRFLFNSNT
Put plainly: Inhibition of protein tyrosine phosphatase 1B. Type of experiment: biochemical. Conditions: 26.1 μMol. The procedure:
Xenobovide A in a concentration of 26.1 μMol inhibits the protein tyrosine phosphotase 1B (PTB1B) by 59%. This enzyme test was carried out according to Hohmann et al. (2009, Caboxamycin, a new antibiotic of the benzoxazole family produced by the deep-sea strain Streptomyces sp. NTK 937. The Journal of Antibiotics. 62:99-104).

Experiment [9] has as its target phosphodiesterase (PDE-4B2) (Homo sapiens, UniProt Q07343). Description: Inhibition of phosphodiesterase PDE-4B2. Conditions: 163 μg/mL. Type of experiment: biochemical. On the procedure: Xenobovide A in a concentration of 163 μg/mL inhibits the phosphodiesterase (PDE-4B2) by 46%. This enzyme test was carried out according to Hohmann et al. (2009, Caboxamycin, a new antibiotic of the benzoxazole family produced by the deep-sea strain Streptomyces sp. NTK 937. The Journal of Antibiotics. 62:99-104).

glycogen synthase kinase 3beta, sequence (P49841 whole entry, species assumed): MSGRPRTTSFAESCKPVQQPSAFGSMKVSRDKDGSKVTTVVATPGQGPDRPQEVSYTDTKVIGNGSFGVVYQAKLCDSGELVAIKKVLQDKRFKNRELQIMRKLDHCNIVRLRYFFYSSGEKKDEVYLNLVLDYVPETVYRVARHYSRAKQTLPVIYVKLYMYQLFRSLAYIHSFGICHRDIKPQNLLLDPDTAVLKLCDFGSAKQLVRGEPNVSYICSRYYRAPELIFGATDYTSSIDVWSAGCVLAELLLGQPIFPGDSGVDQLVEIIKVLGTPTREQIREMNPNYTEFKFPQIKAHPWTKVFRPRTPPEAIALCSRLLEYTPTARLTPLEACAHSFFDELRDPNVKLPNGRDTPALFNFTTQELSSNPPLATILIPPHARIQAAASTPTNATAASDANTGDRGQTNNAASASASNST
phosphodiesterase (PDE-4B2), sequence (Q07343 1-564 isoform Q07343-2, species assumed): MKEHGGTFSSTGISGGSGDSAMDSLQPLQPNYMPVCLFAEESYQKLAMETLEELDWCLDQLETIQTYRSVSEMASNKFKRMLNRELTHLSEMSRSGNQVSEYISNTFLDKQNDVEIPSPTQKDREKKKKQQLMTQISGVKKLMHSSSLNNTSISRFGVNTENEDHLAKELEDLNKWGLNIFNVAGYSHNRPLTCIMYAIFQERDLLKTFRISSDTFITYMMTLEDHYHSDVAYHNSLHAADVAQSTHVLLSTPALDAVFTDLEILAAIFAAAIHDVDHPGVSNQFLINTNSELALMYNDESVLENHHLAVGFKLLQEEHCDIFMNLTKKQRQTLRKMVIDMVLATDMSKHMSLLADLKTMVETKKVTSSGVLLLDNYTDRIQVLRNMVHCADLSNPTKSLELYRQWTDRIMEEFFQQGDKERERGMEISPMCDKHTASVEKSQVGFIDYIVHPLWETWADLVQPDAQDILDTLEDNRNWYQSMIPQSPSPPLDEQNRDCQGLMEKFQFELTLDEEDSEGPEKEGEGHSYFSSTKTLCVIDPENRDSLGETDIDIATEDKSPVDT

`CCCCC(C)CC(=O)N[C@@H]1C(=O)N[C@@H](C)C(=O)NC(CC(C)C)C(=O)NC(CC(C)C)C(=O)NC(CC(C)C)C(=O)NC(CC(C)C)C(=O)N[C@@H](C)C(=O)O[C@@H]1C` (single isomer, unassigned) [Xenobovide B]: the IC50 – broadly, the point on the concentration scale where inhibition reaches its midpoint – came to 14.5 µM in experiment [1]; 5.3 µM in [2]; 2.9 µM in experiment [3]; 3.2 µM in experiment [4]; 9.7 µM in experiment [5]; 2.5 µM in experiment [7]. Moreover, in experiment [6] (15.6 μMol), the “inhibition of glycogen synthase kinase 3beta” value was 43%. Further, the “insecticidal effect (dead larvae)” value in the experiment on larvae of the wax moth is “death of all larvae”.

Consider `CCCCC(C)CC(=O)N[C@@H]1C(=O)N[C@@H](C)C(=O)NC(CC(C)C)C(=O)NC(CC(C)C)C(=O)NC(CC(C)C)C(=O)NC(CC(C)C)C(=O)N[C@@H](C)C(=O)O[C@@H]1C` (single isomer, unassigned) [Xenobovide C], for which the IC50 in experiment [1] stood at 7.6 µM; in [2], 9.4 µM; in experiment [3], 10.3 µM; in experiment [4] it was 8.5 µM; in [5], 7.8 µM; in experiment [7], 3 µM. Further, the “insecticidal effect (dead larvae)” value with larvae of the wax moth is “death of all larvae”.

As to `CCCCC(C)CC(=O)N[C@@H]1C(=O)N[C@@H](C)C(=O)NC(CC(C)C)C(=O)NC(CC(C)C)C(=O)NC(CC(C)C)C(=O)NC(CC(C)C)C(=O)N[C@@H](C)C(=O)O[C@@H]1C` (single isomer, unassigned) [Xenobovide A], the concentration for half-maximal inhibition (IC50) amounted to 12 µM in [1]; 53.6 µM at acetylcholine esterase; 2.7 µM in experiment [2]; 3.5 µM in experiment [3]; 2.1 µM in experiment [4]; 8.5 µM in experiment [5]. The molecule further returned an IC50 in experiment [7] of 1.6 µM. Besides, the “inhibition of protein tyrosine phosphatase 1B” value in experiment [8] came to 59%. Moreover, testing at 163 µg/mL in [9] gave an inhibition of 46%. The “inhibition of glycogen synthase kinase 3beta” value in experiment [6] (16.3 μMol) was determined as 21%. The “insecticidal effect (dead larvae)” value in the experiment with larvae of the wax moth is “death of all larvae”.
